Data from ChEMBL document CHEMBL6121035, “An Unexpected Activity of a Minor Cannabinoid: Cannabicyclol (CBL) Is a Potent Positive Allosteric Modulator of Serotonin 5-HT1A Receptor” (J Nat Prod, 2025).
The source made the active and inactive calls. No cut-off for these calls is given here.

Columns and labels:
[1] = target: T1, 5-hydroxytryptamine receptor 1A (Homo sapiens) (UniProt P08908); test: Positive allosteric modulation of N-terminal FLAG-tagged Rluc8-fused human 5-HT-1A expressed in HEK293T cells by BRET assay relative to control; assay type: cell-based
T1 sequence (whole entry): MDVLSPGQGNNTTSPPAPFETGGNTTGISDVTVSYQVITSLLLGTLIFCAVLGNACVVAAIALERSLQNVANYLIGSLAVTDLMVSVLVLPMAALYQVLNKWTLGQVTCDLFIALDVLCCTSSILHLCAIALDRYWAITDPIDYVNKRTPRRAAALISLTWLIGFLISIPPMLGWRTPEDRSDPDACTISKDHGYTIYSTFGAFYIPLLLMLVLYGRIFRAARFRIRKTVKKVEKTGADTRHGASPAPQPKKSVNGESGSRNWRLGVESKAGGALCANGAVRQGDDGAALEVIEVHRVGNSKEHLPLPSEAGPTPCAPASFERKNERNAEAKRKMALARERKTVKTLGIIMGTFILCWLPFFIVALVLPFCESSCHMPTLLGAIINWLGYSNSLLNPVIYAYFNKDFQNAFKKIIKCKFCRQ

Spike glycoprotein = Spike glycoprotein (Severe acute respiratory syndrome coronavirus 2, UniProt P0DTC2); test: Inhibition of SARS-COV-2 spike protein
[2] = Stability of compound in MCT oil at 40 degreeC measured upto 2 months by HPLC-DAD analysis; assay type: physicochemical; conditions: 1460 h
[3] = Stability of compound at 25 degreeC measured upto 2 months by HPLC-DAD analysis; assay type: physicochemical; conditions: 1460 h
[4] = target: Cannabinoid receptor 1 (Homo sapiens) (UniProt P21554); test: Displacement of [3H]-CP55940 from cannabinoid CB1 receptor (unknown origin) at 1 to 10 uM incubated for 90 mins by Radioligand binding assay; conditions: dose 1-10 µM
[5] = target: Cannabinoid receptor 2 (Homo sapiens) (UniProt P34972); test: Displacement of [3H]-CP55940 from cannabinoid CB2 receptor (unknown origin) at 1 uM incubated for 90 mins by Radioligand binding assay
[6] = target: T1, 5-hydroxytryptamine receptor 1A (Homo sapiens); test: Displacement of [3H]-8-Hydroxy-DPAT from 5-HT-1A receptor (unknown origin) at 1 uM incubated for 90 mins by Radioligand binding assay relative to control
[7] = target: T1, 5-hydroxytryptamine receptor 1A (Homo sapiens); test: Agonist activity at PK-tagged human 5-HT-1A receptor expressed in CHO-K1 cells at > 0.5 uM incubated for 90 mins by measuring beta-arrestin recruitment by PathHunter assay; assay type: functional, cell-based; conditions: filed as agonist
[8] = target: T1, 5-hydroxytryptamine receptor 1A (Homo sapiens); test: Agonist activity at PK-tagged human 5-HT-1A receptor expressed in CHO-K1 cells at 12 uM incubated for 90 mins by measuring beta-arrestin recruitment by PathHunter assay relative to control; assay type: functional, cell-based
[9] = target: T1, 5-hydroxytryptamine receptor 1A (Homo sapiens); test: (§1) Positive allosteric modulation of PK-tagged human 5-HT-1A receptor expressed in CHO-K1 cells assessed as receptor activation at 50 nM in presence of serotonin at 40 nM preincubated with compound for 30 mins followed by serotonin addition and measured after 90 mins by measuring beta arrestin recruitment by chemiluminescence based envision reader analysis; assay type: functional, cell-based; conditions: filed as positive allosteric modulator, time 120.0 min
[10] = target: T1, 5-hydroxytryptamine receptor 1A (Homo sapiens); test: as §1, with “activation” for “activation at 50 nM”, “serotonin” for “serotonin at 40 nM”; assay type: functional, cell-based; conditions: filed as positive allosteric modulator, dose 0.6-12000 nM
[11] = target: T1, 5-hydroxytryptamine receptor 1A (Homo sapiens); test: as §1, with “4 uM” for “50 nM”, “serotonin” for “serotonin at 40 nM”, “analysis relative to control” for “analysis”; assay type: functional, cell-based; conditions: filed as positive allosteric modulator
[12] = target: T1, 5-hydroxytryptamine receptor 1A (Homo sapiens); test: as §1, with “12 uM” for “50 nM”, “serotonin” for “serotonin at 40 nM”; assay type: functional, cell-based
[13] = target: T1, 5-hydroxytryptamine receptor 1A (Homo sapiens); test: as §1, with “1 uM” for “50 nM”, “175” for “40”, “analysis relative to control” for “analysis”; assay type: functional, cell-based; conditions: filed as positive allosteric modulator
[14] = target: T1, 5-hydroxytryptamine receptor 1A (Homo sapiens); test: as §1, with “> 10 uM” for “50 nM”, “175” for “40”; assay type: functional, cell-based

Chain of Cannabinoid receptor 2 (Homo sapiens) (P34972 whole entry): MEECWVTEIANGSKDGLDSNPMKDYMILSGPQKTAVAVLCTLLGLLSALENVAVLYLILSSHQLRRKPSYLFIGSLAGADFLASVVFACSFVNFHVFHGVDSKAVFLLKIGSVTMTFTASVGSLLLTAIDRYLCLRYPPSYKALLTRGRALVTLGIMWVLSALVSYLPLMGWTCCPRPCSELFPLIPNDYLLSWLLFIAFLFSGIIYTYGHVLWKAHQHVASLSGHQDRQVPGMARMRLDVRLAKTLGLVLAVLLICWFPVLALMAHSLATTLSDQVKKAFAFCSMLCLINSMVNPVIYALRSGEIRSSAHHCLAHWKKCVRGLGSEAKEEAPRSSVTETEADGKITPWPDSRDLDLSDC
Chain of Cannabinoid receptor 1 (Homo sapiens) (P21554 whole entry): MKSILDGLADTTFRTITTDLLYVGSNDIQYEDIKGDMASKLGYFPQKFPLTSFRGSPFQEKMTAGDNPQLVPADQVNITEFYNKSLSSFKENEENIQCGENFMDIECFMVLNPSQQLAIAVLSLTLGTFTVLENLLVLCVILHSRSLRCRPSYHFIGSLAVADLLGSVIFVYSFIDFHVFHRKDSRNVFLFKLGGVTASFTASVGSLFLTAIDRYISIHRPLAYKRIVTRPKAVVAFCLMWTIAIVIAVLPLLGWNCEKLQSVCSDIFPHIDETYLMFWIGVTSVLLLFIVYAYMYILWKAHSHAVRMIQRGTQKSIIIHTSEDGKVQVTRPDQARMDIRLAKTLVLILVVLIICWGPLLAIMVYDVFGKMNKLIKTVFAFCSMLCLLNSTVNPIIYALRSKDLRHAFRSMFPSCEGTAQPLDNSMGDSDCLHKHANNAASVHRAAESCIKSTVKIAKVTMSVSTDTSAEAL

SMILES | Activity [1] [%] | EC50 (Spike glycoprotein) [µM] | Stability [2] | Stability [3] | Activity [4] | Activity [5] | Activity [6] [%] | Activity [7] | Activity [8] [%] | Activity [9] | Activity [10] | Activity [11] [%] | Activity [12] | Activity [13] [%] | Activity [14]
CCCCCn1cc(C(=O)c2cccc3ccccc23)c2ccccc21 | 12 |  |  |  |  |  |  |  |  |  |  |  |  |  | 
O=C(c1cccc2ccccc12)c1cn(CCCCCF)c2ccccc12 | 21 |  |  |  |  |  |  |  |  |  |  |  |  |  | 
CCCCCc1cc(O)c2c(c1)OC1(C)CCC3C1C2C3(C)C (racemic) [CANNABICYCLOL] |  | 10.8 | Stable | Stable | inactive | inactive | 20 | Active; Minimal Agonist Activity Observed | 15 | Active | Dose-dependent-effect | 80 | inactive | 100 | inactive
